According to paper PMC9299836 (eLife, 2022):
Values joined by “and” are separate entries in the source; they are usually repeats but may differ in a detail not shown here. Equal values may be shown once.

How the values were obtained:
[1] = molecular target: mGluR2 (Mus musculus, UniProt Q14BI2, A548F); test: Live-cell FRET, azi-CRD (cysteine-rich domain) sensor in HEK293T cells; conditions: for azi-CRD normalized FRET response, Mean / azi-CRD normalized FRET response, individual cell: Glutamate + 10μM modulator (NAM); for azi-CRD normalized FRET response, Mean: maximal response normalized to 1mM glutamate; for azi-CRD normalized FRET response, individual cell: single-cell replicate
[2] = molecular target: mGluR2 (Mus musculus, UniProt Q14BI2); test: Live-cell FRET, SNAP-m2 (VFT domain) inter-subunit sensor in HEK293T cells; conditions: for Mean normalized FRET response, SNAP-m2 NAM DRC: glutamate + 10μM modulator, maximal response normalized to 1mM glutamate;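 on all read-outs here: apparent FRET efficiency from whole-membrane ROIs of single cells, corrected for donor bleed-through and background, ΔFRET as treatment minus pretreatment signal, recorded at room temperature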
[3] = molecular target: mGluR2 (Mus musculus, UniProt Q14BI2, INS715F); test: Live-cell FRET, azi-ECL2 (7TM domain, extracellular loop 2) sensor in HEK293T cells; conditions: for Mean normalized azi-ECL2 FRET response: glutamate + 10μM modulator, maximal response normalized to 1mM glutamate;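 on all read-outs here: Cy3/Cy5 click-labeled sensor, whole-membrane ROIs per cell, apparent FRET after bleed-through correction, ΔFRET as treatment minus pre-treatment signal, at room temperature, at least three biological replicates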
[4] = 10μM MNI-137, ([1 mM glutamate + modulator] - [1 mM glutamate]) × 100

Chain of mGluR2 (Mus musculus, UniProt Q14BI2, INS715F) (Q14BI2 with tags, fused parts or gaps INS715F): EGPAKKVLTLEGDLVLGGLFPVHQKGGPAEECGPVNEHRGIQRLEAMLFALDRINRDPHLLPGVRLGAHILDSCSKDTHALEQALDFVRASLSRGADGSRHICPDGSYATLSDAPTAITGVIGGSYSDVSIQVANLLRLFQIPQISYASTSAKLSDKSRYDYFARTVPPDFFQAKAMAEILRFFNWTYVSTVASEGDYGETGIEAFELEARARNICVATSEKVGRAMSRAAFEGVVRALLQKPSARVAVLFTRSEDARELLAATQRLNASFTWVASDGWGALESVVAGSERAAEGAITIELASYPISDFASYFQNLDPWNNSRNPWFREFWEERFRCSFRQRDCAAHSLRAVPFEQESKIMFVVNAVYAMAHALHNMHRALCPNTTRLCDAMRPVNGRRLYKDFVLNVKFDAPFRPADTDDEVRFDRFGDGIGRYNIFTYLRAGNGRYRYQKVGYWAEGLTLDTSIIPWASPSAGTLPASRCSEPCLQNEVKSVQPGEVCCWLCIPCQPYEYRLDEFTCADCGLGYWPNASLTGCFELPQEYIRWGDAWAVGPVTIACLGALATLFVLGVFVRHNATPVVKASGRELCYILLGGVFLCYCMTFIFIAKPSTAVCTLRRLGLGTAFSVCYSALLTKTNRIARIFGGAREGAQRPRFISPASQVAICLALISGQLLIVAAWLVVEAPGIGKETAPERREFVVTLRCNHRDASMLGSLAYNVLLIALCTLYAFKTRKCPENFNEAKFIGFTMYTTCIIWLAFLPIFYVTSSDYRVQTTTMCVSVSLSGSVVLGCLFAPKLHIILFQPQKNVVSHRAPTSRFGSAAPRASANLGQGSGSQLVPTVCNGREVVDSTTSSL
Chain of mGluR2 (Mus musculus, UniProt Q14BI2) (Q14BI2 19-872): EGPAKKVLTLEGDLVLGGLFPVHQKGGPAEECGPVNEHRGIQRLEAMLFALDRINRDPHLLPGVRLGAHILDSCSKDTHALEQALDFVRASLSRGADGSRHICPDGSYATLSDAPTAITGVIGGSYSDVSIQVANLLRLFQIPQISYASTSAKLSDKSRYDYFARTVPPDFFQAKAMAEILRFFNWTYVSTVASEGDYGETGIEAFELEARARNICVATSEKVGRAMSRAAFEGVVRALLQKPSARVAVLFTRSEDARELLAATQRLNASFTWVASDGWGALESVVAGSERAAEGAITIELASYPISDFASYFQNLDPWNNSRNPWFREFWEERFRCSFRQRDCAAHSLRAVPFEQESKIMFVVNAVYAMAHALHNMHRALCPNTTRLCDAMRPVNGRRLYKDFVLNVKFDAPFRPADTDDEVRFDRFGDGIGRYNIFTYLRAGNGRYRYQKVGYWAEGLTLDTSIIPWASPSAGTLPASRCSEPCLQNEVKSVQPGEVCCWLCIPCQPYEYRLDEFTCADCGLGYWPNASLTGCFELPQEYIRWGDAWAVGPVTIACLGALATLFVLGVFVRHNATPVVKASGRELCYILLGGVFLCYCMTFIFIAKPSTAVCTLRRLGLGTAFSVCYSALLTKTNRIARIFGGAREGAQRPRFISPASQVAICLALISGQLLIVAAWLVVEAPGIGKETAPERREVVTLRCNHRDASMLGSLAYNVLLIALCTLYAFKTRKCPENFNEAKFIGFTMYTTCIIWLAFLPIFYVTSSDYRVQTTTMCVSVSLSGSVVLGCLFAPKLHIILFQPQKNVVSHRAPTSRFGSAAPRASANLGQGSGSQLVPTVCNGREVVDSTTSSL
Chain of mGluR2 (Mus musculus, UniProt Q14BI2, A548F) (Q14BI2 19-872 A548F): as the sequence (Q14BI2 19-872) above, with A530F counted along it

## MNI-137
[1]; [4]
  azi-CRD - ΔEfficacy, Mean ΔEfficacy: -14.0141
[1]; 10μM MNI-137, single cells
  azi-CRD - ΔEfficacy, individual cell responses: -19.4456 and -7.384 and -10.1516 and 1.621 and -9.317 and -10.1717 and -14.3919 and -15.5722 and -14.8125 and -10.0435 and -13.9489 and -17.5047 and -9.853 and -8.072 and -15.0625 and -34.4877 and -19.6812 and -23.9757
[1]; log[Glutamate] (M) -3
  azi-CRD normalized FRET response, Mean: 0.8599
[1]; log[Glutamate] (M) -4.52288
  azi-CRD normalized FRET response, Mean: 0.6022
[1]; log[Glutamate] (M) -5
  azi-CRD normalized FRET response, Mean: 0.3809
[1]; log[Glutamate] (M) -5.39794
  azi-CRD normalized FRET response, Mean: 0.1786
  azi-CRD normalized FRET response, individual cell: 0.1624 and 0.1634 and 0.1646 and 0.1674 and 0.1243 and 0.1237 and 0.1526 and 0.2062 and 0.1399 and 0.1742 and 0.1692 and 0.2509 and 0.1433 and 0.1979 and 0.2166 and 0.2171 and 0.2594 and 0.1653 and 0.2159 and 0.1911 and 0.1708 and 0.1695 and 0.153
[1]; log[Glutamate] (M) -5.82391
  azi-CRD normalized FRET response, Mean: 0.06813
  azi-CRD normalized FRET response, individual cell: 0.04445 and 0.05893 and 0.04553 and 0.06348 and 0.04636 and 0.04299 and 0.07924 and 0.06124 and 0.04784 and 0.04123 and 0.06211 and 0.06632 and 0.1186 and 0.05696 and 0.08797 and 0.1273 and 0.06713 and 0.0889 and 0.0871 and 0.09832 and 0.05971 and 0.05629 and 0.07113 and 0.07112 and 0.06208 and 0.06258 and 0.06477
[1]; log[Glutamate] (M) -6.52288
  azi-CRD normalized FRET response, Mean: 0.03124
  azi-CRD normalized FRET response, individual cell: 0.0188 and 0.01987 and 0.01609 and 0.02693 and 0.05479 and 0.05033 and 0.00719 and 0.0225 and 0.06219 and 0.01914 and 0.02051 and 0.02647 and 0.05278 and 0.03127 (2×) and 0.02714 and 0.04081 and 0.0402 and 0.04434 and 0.02897 and 0.03138 and 0.03664 and 0.02295
[1]; log[Glutamate] (M) -7
  azi-CRD normalized FRET response, Mean: 0
  azi-CRD normalized FRET response, individual cell: 0
[1]; azi-CRD sensor, + 10 μM modulator
  Hill slope of glutamate titration: 1.10
[1]; azi-CRD sensor, Glutamate + 10μM MNI-137, individual values (N=18)
  Live-cell FRET max response normalized to 1mM glutamate: 0.9068 and 0.8983 and 0.8561 and 0.8443 and 0.8519 and 0.8996 and 0.8605 and 0.8249 and 0.9015 and 0.9193 and 0.8494 and 0.6551 and 0.8032 and 0.7602 and 0.8055 and 0.9262 and 0.8985 and 1.016
[1]; azi-CRD, 1 mM glutamate + 10 μM modulator, normalized to 1 mM glutamate
  Mean max response (normalized max ΔFRET): 0.86
[1]; azi-CRD, 10μM modulator, (([modulator + glutamate]EC50 – [glutamate] EC50)/[glutamate] EC50) × 100
  Mean ΔPotency: 19.3799
[1]; azi-CRD, 10μM modulator, calculated from individual cell responses
  ΔPotency, individual cell: 8.099 and 2.046 and -1.414 and 21.9358 and 9.829 and 20.2062 and 22.8006 and -4.008 and 2.91 and 8.964 and 24.5302 and 18.4766 and 6.37 and 10.6935 and 59.9867 and 17.6119 and -18.5365 and 122.252 and 0.316 and -3.143 and -10.9263 and 95.4432 and 15.0175
[2]; [4]
  SNAP-m2 - ΔEfficacy, Mean ΔEfficacy: -14.5253
[2]; 10μM MNI-137, single cells
  SNAP-m2 - ΔEfficacy, individual cell responses: -10.7213 and -26.7573 and -13.8479 and -17.3754 and -14.1858 and -21.1325 and -12.0197 and -12.3419 and -6.834 and -6.212 and -2.3686 and -0.3026 and -3.79 and -23.2696 and -18.431 and -18.5097 and -23.731 and -16.2088 and -24.4772 and -17.7281 and -7.524 and -21.7885
[2]; SNAP-m2, 1 mM glutamate + 10 μM modulator, normalized to 1 mM glutamate
  Mean max response (normalized max ΔFRET): 0.85
[2]; SNAP-m2, 10μM modulator, (([modulator + glutamate]EC50 – [glutamate] EC50)/[glutamate] EC50) × 100
  Mean ΔPotency: 44.8085
[2]; SNAP-m2, 10μM modulator, ([1 mM glutamate + modulator] - [1 mM glutamate]) × 100
  Mean ΔEfficacy: -14.5253
[2]; SNAP-m2 sensor, + 10 μM modulator
  Hill slope of glutamate titration: –1.61
[2]; SNAP-m2 sensor, Glutamate + 10μM MNI-137, individual values (N=22)
  Live-cell FRET max response normalized to 1mM glutamate: 0.8581 and 0.7887 and 0.8798 and 0.8766 and 0.9317 and 0.9379 and 0.9763 and 0.997 and 0.9621 and 0.7673 and 0.8157 and 0.8149 and 0.7627 and 0.8379 and 0.7552 and 0.8227 and 0.9248 and 0.7821 and 0.8928 and 0.7324 and 0.8615 and 0.8263
[2]; log[Glutamate] (M) -3
  Mean normalized FRET response, SNAP-m2 NAM DRC: -0.8548
[2]; log[Glutamate] (M) -4.1549
  Mean normalized FRET response, SNAP-m2 NAM DRC: -0.777
[2]; log[Glutamate] (M) -4.52288
  Mean normalized FRET response, SNAP-m2 NAM DRC: -0.6231
[2]; log[Glutamate] (M) -5
  Mean normalized FRET response, SNAP-m2 NAM DRC: -0.2568
[2]; log[Glutamate] (M) -5.82391
  Mean normalized FRET response, SNAP-m2 NAM DRC: -0.04212
[2]; log[Glutamate] (M) -6.52288
  Mean normalized FRET response, SNAP-m2 NAM DRC: 0
[2]; log[Glutamate] (M) -7
  Mean normalized FRET response, SNAP-m2 NAM DRC: 0
[2]; log[Glutamate] (M) -7.69897
  Mean normalized FRET response, SNAP-m2 NAM DRC: 0
[2]; log[Glutamate] (M) -4.69897
  Mean normalized FRET response, SNAP-m2 NAM DRC: -0.4828
[3]; [4]
  azi-ECL2 - ΔEfficacy, Mean ΔEfficacy: -22.0861
[3]; 10μM modulator, (([modulator + glutamate]EC50 – [glutamate] EC50)/[glutamate] EC50) × 100
  Mean ΔPotency: 179.936
[3]; 10μM modulator, single cells, (([modulator + glutamate]EC50 – [glutamate] EC50)/[glutamate] EC50) × 100
  ΔPotency, individual cell responses: 208.526 and 269.842 and 265.754 and 289.307 and 19.9066 and 99.1307 and 118.401 and 168.622
[3]; azi-ECL2, 1 mM glutamate + 10 μM modulator, normalized to 1 mM glutamate
  Mean max response (normalized max ΔFRET): 0.78
[3]; azi-ECL2 sensor, + 10 μM modulator
  Hill slope of glutamate titration: 1.32
[3]; log[Glutamate] (M) -3
  Mean normalized azi-ECL2 FRET response: 0.7791
[3]; log[Glutamate] (M) -4.1549
  Mean normalized azi-ECL2 FRET response: 0.6793
[3]; log[Glutamate] (M) -4.52288
  Mean normalized azi-ECL2 FRET response: 0.5808
[3]; log[Glutamate] (M) -5
  Mean normalized azi-ECL2 FRET response: 0.314
